Data taken from publication PMC6691788, “Design and synthesis of phthalazine-based compounds as potent anticancer agents with potential antiangiogenic activity via VEGFR-2 inhibition” (Journal of Enzyme Inhibition and Medicinal Chemistry, 2019).

Tests used:
Experiment in all cases: NCI 60 cell panel SRB screen
Assay type in all cases: cell-based
ACHN = details: Homo sapiens; for GI50 / IC (TGI) / CC50: 5 log dose; for CC50: 48 h, read-out: LC50 (the source's name); for activity at 10 µM: single dose 10 μM, read-out: percent cell growth promotion
SNB-75 = details: Homo sapiens; for GI50 / IC (TGI) / LC50 (concentration killing 50% of cells): SNB-75, 5 log dose; for LC50 (concentration killing 50% of cells): 48 h; for activity at 10 µM: SNB-75, single dose 10 μM, read-out: percent cell growth promotion
NCI-H460 = details: Homo sapiens; for GI50 / IC (TGI) / LC50 (concentration causing 50% cell kill): NCI-H460, 5 log dose; for LC50 (concentration causing 50% cell kill): 48 h; for activity at 10 µM: NCI-H460, single dose 10 μM, read-out: percent cell growth promotion
MDA-MB-468 = details: Homo sapiens; for activity at 10 µM: MDA-MB-468, MDA-MBA-468, single dose 10 μM, read-out: percent cell growth promotion; for GI50 / IC (TGI) / CC50: MDA-MB-468, 5 log dose; for CC50: 48 h, read-out: LC50 (the source's name)
Procedure: The human tumor cell lines of the cancer-screening panel were grown in RPMI 1640 medium containing 5% fetal bovine serum and […] L-glutamine. For a typical screening experiment, cells are inoculated into 96 well microtiter plates in 100 ml at plating densities ranging from 5000 to 40,000 cells/well depending on the doubling time of individual cell lines. After cell inoculation, the microtiter plates are incubated at 37 °C, 5% CO2, 95% air and 100%
relative humidity for 24 h prior to addition of experimental drugs. After 24 h, two plates of each cell line are fixed in situ with TCA, to represent a measurement of the cell population for each cell line at the time of drug addition (Tz). Experimental drugs are dissolved in dimethyl sulfoxide at 400-fold the desired final maximum test concentration and stored frozen prior to use. At the time of drug addition, an aliquot of frozen concentrate is thawed and diluted to twice the desired final maximum test concentration with complete medium containing […] Gentamicin. Additional four, 10-fold or ½log serial dilutions are made to provide a total of five drug concentrations plus control. Aliquots of […] of these different drug dilutions are added to the appropriate microtiter wells already containing 100 ml of medium, resulting in the required final drug concentrations. Following drug addition, the plates are incubated for an additional 48 h at 37 °C, 5% CO2, 95% air, and 100% relative humidity. For adherent cells, the assay is terminated by the addition of cold TCA. Cells are fixed in situ by the gentle addition of […] of cold 50% (w/v) TCA (final concentration,10% TCA) and incubated for 60 min at 4 °C. The supernatant is discarded, and the plates are washed five times with tap water and air dried. Sulforhodamine B (SRB) solution (100 ml) at 0.4% (w/v) in 1% acetic acid is added to each well, and plates are incubated for 10 min at room temperature. After staining, unbound dye is removed by washing five times with 1% acetic acid and the plates are air dried. Bound stain is subsequently dissolved with 10 μM trizma base, and the absorbance is read on an automated plate reader at a wavelength of 515 nm. For suspension cells, the methodology is the same except that the assay is terminated by fixing settled cells at the bottom of the wells by gently adding […] of 80% TCA (final concentration, 16% TCA).
Using the seven absorbance measurements [time zero, (Tz), control growth, (C), and test growth in the presence of drug at the five concentration levels (Ti)], the percentage growth is calculated at each of the drug concentrations levels. Percentage growth inhibition is calculated as: [(Ti -Tz)/(C - Tz)] x 100 for concentrations for which Ti>/ ¼ Tz and [(Ti -Tz) / Tz] x100 for concentrations for which Ti <Tz.
Three dose response parameters are calculated for each experimental agent. Growth inhibition of 50% (GI50) is calculated from [(Ti -Tz)/(C - Tz)] x 100 =50, which is the drug concentration resulting in a 50% reduction in the net protein increase (as measured by SRB staining) in control cells during the drug incubation. The drug concentration resulting in total growth inhibition (TGI) is calculated from Ti ¼ Tz. The LC50 (concentration of drug resulting in a 50% reduction in the measured protein at the end of the drug treatment as compared to that at the beginning) indicating a net loss of cells following treatment is calculated from [(Ti - Tz) / Tz] x100 = -50. Values are calculated for each of these three parameters if the level of activity is reached; however, if the effect is not reached or is exceeded, the value for that parameter is expressed as greater or less than the maximum or minimum concentration tested.

BT-549 = details: Homo sapiens; for GI50: BT-549; for IC (TGI): BT-549, read-out: TGI; for activity at 10 µM: BT-549, read-out: percent cell growth promotion; for CC50: BT-549, 5 log dose, 48 h, read-out: LC50 (the source's name)
SK-MEL-5 = details: Homo sapiens; for GI50: SK-MEL-5; for IC (TGI): SK-MEL-5, read-out: TGI; for activity at 10 µM: SK-MEL-5, read-out: percent cell growth promotion; for CC50: SK-MEL-5, 5 log dose, 48 h, read-out: LC50 (the source's name)
U251 = details: Homo sapiens, U-251; for GI50 / IC (TGI) / CC50: U251, 5 log dose; for CC50: 48 h, read-out: LC50 (the source's name); for activity at 10 µM: U251, single dose 10 μM, read-out: percent cell growth promotion

| SMILES | GI50 (ACHN) [µM] | IC (TGI) (ACHN) [µM] | CC50 (ACHN) [µM] | activity at 10 µM (ACHN) [%] | GI50 (SNB-75) [µM] | IC (TGI) (SNB-75) [µM] | LC50 (concentration killing 50% of cells) (SNB-75) [µM] | activity at 10 µM (SNB-75) [%] | GI50 (NCI-H460) [µM] | IC (TGI) (NCI-H460) [µM] | LC50 (concentration causing 50% cell kill) (NCI-H460) [µM] | activity at 10 µM (NCI-H460) [%] | activity at 10 µM (MDA-MB-468) [%] | GI50 (MDA-MB-468) [µM] | IC (TGI) (MDA-MB-468) [µM] | CC50 (MDA-MB-468) [µM] | GI50 (BT-549) [µM] | activity at 10 µM (BT-549) [%] | activity at 10 µM (SK-MEL-5) [%] | activity at 10 µM (U251) [%] | also measured |
| --- | --- | --- | --- | --- | --- | --- | --- | --- | --- | --- | --- | --- | --- | --- | --- | --- | --- | --- | --- | --- | --- |
| O=C(Nc1ccccc1)Nc1ccc(Oc2nnc(Cl)c3ccccc23)cc1 [Compound 13a, 1–(4-(4-Chlorophthalazin-1-yloxy)phenyl)-3-phenylurea] | 3.47 | 18.7 | > 25 | 33.9 | 1.08 | 5.9 | 21.3 | -42 | 2.67 | 8.65 | > 25 | 25.2 | 0.47 | 7.58 | 7.56 | > 25 | 3.06 | 47.7 | 32.9 | 4.84 | IC (TGI) (BT-549): 10.8 µM; CC50 (BT-549): > 25 µM; GI50 (SK-MEL-5): 4.56 µM; IC (TGI) (SK-MEL-5): 18.6 µM; CC50 (SK-MEL-5): > 25 µM; GI50 (U251): 2.14 µM; IC (TGI) (U251): 5.2 µM; CC50 (U251): 11.4 µM |
| O=C(Nc1ccc(Cl)cc1)Nc1ccc(Oc2nnc(Cl)c3ccccc23)cc1 [Compound 13b, 1–(4-Chlorophenyl)-3–(4-(4-chlorophthalazin-1-yloxy)phenyl)urea] | – | – | – | 80.7 | – | – | – | 74 | – | – | – | 98.1 | 84.9 | – | – | – | – | 96.8 | 95.5 | 86.7 | – |
| Clc1ccc(Nc2nnc(CNc3ccccc3)c3ccccc23)cc1 [Compound 16a, N-(4-Chlorophenyl)-4-((phenylamino)methyl)phthalazin-1-amine] | 3.1 | > 25 | > 25 | 7.07 | 0.87 | 7.05 | > 25 | 19.6 | 3.21 | 9.98 | > 25 | 17.6 | -16.4 | 1.9 | 11.5 | > 25 | 2.93 | 4.94 | -69.1 | 9.66 | IC (TGI) (BT-549): 8.2 µM; CC50 (BT-549): 22.9 µM; GI50 (SK-MEL-5): 2.08 µM; IC (TGI) (SK-MEL-5): 5.27 µM; CC50 (SK-MEL-5): 11.8 µM; GI50 (U251): 3.28 µM; IC (TGI) (U251): 7.33 µM; CC50 (U251): 16.4 µM |
| COc1cccc(NCc2nnc(Nc3ccc(Cl)cc3)c3ccccc23)c1 [Compound 16d, N-(4-Chlorophenyl)-4-((3-methoxyphenylamino)methyl)phthalazin-1-amine] | 1.56 | 24.4 | > 25 | -5.35 | 0.29 | 5.27 | 23.1 | -6.06 | 2.69 | 7.15 | 19 | 0.1 | -21.9 | 1.05 | 4.73 | 19.5 | 1.9 | -12.2 | -98.5 | -56.2 | IC (TGI) (BT-549): 7.42 µM; CC50 (BT-549): 24.8 µM; GI50 (SK-MEL-5): 0.81 µM; IC (TGI) (SK-MEL-5): 4.18 µM; CC50 (SK-MEL-5): 10.2 µM; GI50 (U251): 2.78 µM; IC (TGI) (U251): 6.54 µM; CC50 (U251): > 25 µM |
| Clc1ccc(Nc2nnc(COc3ccccc3)c3ccccc23)cc1 [Compound 17a, N-(4-Chlorophenyl)-4-(phenoxymethyl)phthalazin-1-amine] | 2.35 | > 25 | > 25 | 3.37 | 0.49 | 6.65 | > 25 | 13.1 | 2.7 | 7.12 | 18.8 | 3.1 | -16.9 | 1.49 | 7.62 | > 25 | 2.05 | -9.97 | -96.1 | -12.7 | IC (TGI) (BT-549): 6.65 µM; CC50 (BT-549): 19 µM; GI50 (SK-MEL-5): 1.08 µM; IC (TGI) (SK-MEL-5): 4.56 µM; CC50 (SK-MEL-5): 10.8 µM; GI50 (U251): 1.24 µM; IC (TGI) (U251): 7.47 µM; CC50 (U251): 19.1 µM |
